Assay results taken from patent US20060234909A1, “Compositions and methods for increasing drug efficiency” (priority 2003, published 2006).
Primed or numbered codes have the meaning given here. * marks the point of attachment. 10Ca‑PXL = paclitaxel conjugated at C10 via a carbamate; 3Am‑VBL = vinblastine (VBL) conjugate; 3Am‑VBL″ = vinblastine conjugate; PEG(13)″ = PEG(13) linker; PEG(11) = PEG(11) linker; DMAB = not defined here; 3Am = not defined here; Cbz = O=C(OCc1ccccc1)*; PEG(13) = PEG13 linker; Piv = CC(C)(C)C(=O)*; VBL = vinblastine

Tests used:
tubulin = test: Fluorescence-based tubulin polymerization assay (MPA; enhancement for paclitaxel, inhibition for vinblastine); type: biochemical
Outline: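 Tubulin polymerisation was followed by fluorescence (ex 360/em 405 nm) with 1 mg/ml BSA in all assays. For paclitaxel conjugates, glycerol was omitted. Parent drugs and conjugates were tested at 0.75, 1.5, 3 and 10 micromolar final, and values come from the linear range of the dose responses.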

MCF-7 breast carcinoma = test: Cytotoxicity assay (monolayer), MCF-7; type: cell-based; conditions: MCF7, ML (monolayer); read-out: MCF7 (EC50 Ave) ML;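 note: cells treated 72 h with 6-8 compound doses versus DMSO vehicle controls, EC50 fitted by 4-parameter dose-response curves, averaged across all tests and lots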
[1] = tested on: HT-29 colorectal carcinoma; test: Cytotoxicity assay (monolayer), HT-29; type: cell-based; conditions: HT29, ML (monolayer); read-out: HT29 (EC50 Ave) ML;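 note: monolayer cultures tested in triplicate, compound exposure for three days against DMSO vehicle controls, EC50 fitted from dose-response curves and averaged across all tests and lots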
HUVEC = test: Cytotoxicity assay (monolayer), HUVEC; type: cell-based; conditions: ML (monolayer), read-out: HUVEC (EC50 Ave) ML
[2] = tested on: Normal human foreskin fibroblasts (HFF); conditions: read-out: HFF (EC50 Ave) ML; HFF, ML (monolayer)
Akt = Akt (Homo sapiens, UniProt P31749); test: Akt kinase assay (PKLight ATP utilization, substrate phosphorylation as % of parent peptide); type: biochemical; parameters: purchased Upstate (Charlottesville, Va.) 14-276
Chain of Akt (P31749 whole entry): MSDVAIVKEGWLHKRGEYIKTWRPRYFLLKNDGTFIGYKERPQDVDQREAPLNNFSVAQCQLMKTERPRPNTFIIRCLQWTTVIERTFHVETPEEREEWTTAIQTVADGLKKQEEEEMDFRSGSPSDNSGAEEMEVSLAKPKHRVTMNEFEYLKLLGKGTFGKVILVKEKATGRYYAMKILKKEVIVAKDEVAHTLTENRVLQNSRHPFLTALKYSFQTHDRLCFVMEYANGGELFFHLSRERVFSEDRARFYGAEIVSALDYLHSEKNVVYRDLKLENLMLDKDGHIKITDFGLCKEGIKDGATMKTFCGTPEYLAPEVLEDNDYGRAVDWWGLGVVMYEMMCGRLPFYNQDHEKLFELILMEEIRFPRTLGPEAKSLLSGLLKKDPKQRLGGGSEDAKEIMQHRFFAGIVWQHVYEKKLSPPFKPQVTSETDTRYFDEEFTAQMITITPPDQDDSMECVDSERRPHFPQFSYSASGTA
Protocol: Another test may involve monitoring the consumption of ATP. For example, ATP concentrations at time 0 or after 4 hour incubation may be monitored by luciferase reaction (PKLight kit obtained from Cambrex Corporation, One Meadowlands Plaza, East Rutherford, N.J. 07073), which generate a luminescence readout in the presence of ATP. Assays are initiated by mixing a kinase and a peptide in the presence of 40 μM ATP. After 4 hour of incubation at 30° C., PKLight reagent is added and mixed well, and luminescence readout measured. The rate of peptide phosphorylation is then directly related to the rate of decrease in the observed luminescence. Based on the first test, linkers of appropriate lengths and peptides with an effective amount of kinase activity which may be expected to be retained in the drug conjugate may be found.
Human Src (#14-326) and Akt (#14-276) kinases were purchased from Upstate (Charlottesville, Va.). Kinase reactions were carried out in 50 μl kinase reaction cocktail (25 mM Tris-HCl, pH 7.5, 5 μM β-glycerophosphate, 2 mM DTT, 0.1 mM Na3VO4, 10 mM MgCl2, 1 mg/ml BSA, […], 0.5 to 1.0 units enzyme). Substrates (peptide or drug-peptide conjugate in […]) were added (25, 50 and 100 μM) and the reaction was incubated for 2-5 hours at 30° C. PKLight reagent (23 μl) (Cambrex BioSciences, Rockland, Me.) was mixed with […] of the above kinase reaction and ATP utilization relative to no substrate and no ATP controls was determined by measuring luminescence with a SpectraMax Gemini EM plate reader (Molecular Devices, Sunnyvale, Calif.). Peptide substrates for Src and Akt have been described. For examples, see Lou et al. Letters in Peptide Science, 2, 289-296 (1995); Lou et al. Bioorganic & Medicinal Chemistry, 4, 677-682 (1996); Alessi et al. FEBS Letters, 399, 333-338 (1996). Substrate phosphorylation potential was determined from the linear portion of the substrate concentration dose response as a percentage of the activity observed with the parent peptide used for drug conjugation.

[3] = Serum stability in RPMI1640 medium containing 10% fetal bovine serum; type: in vitro ADME
Protocol: The stability of conjugates was measured in RPMI1640 cell culture medium containing 10% fetal bovine serum. The serum-containing medium was pre-warmed at 37° C. for 3 min prior to addition of test articles. Test articles, prepared in DMSO as 5 mM stocks, were added to the cell culture media to a final concentration of 10 μM. Aliquots ([…]) were withdrawn in triplicate at 0, 4, 8, 24 and 72 hours and combined with the same volume of ice-cold acetonitrile to terminate the reaction. The mixture was centrifuged at 2,000×g for 10 minutes. One part of the supernatant was mixed with four parts of deionized water to bring down the percentage of organic solvent. The diluted samples were then assayed by LC/MS for the test article. The natural log of the percent remaining was plotted versus time. A linear fit was used to determine the rate constant. The fit was truncated after the percent of remaining test article was less than 10%. The elimination half-lives associated with the disappearance of test articles were determined to compare their relative stability. The assays were carried out by Absorption Systems (Exton, Pa.).

MCF-7 cells = conditions: read-out: MCF7 (EC50 Ave) SA; MCF7, SA (soft agar)
Human Src = molecular target: T1, Human Src (Homo sapiens, UniProt P12931); test: Src kinase assay (PKLight ATP utilization, substrate phosphorylation as % of parent peptide); type: biochemical
T1 construct: purchased Upstate (Charlottesville, Va.) 14-326
Outline: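 Recombinant human Src or Akt phosphorylated peptide or drug–peptide conjugate substrates (25, 50, 100 μM) at 30° C for 2–5 hours, in Tris-HCl pH 7.5 buffer with MgCl2 and ATP. ATP use was read by luciferase luminescence against no-substrate and no-ATP controls. Phosphorylation was taken from the linear range and expressed as % of the parent peptide.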

HT-29 cells = conditions: read-out: HT29 (EC50 Ave) SA; HT29, SA (soft agar)

Compound | Ave. MPA Act. (tubulin) | EC50 (MCF-7 breast carcinoma) | EC50 [1] | EC50 (HUVEC) | EC50 [2] | Ave. Akt Kinase Act. (Akt) | Relative Percent Remaining at 0 hr ([3]; 0 hr) | remaining at 4 h, 10 μM ([3]; bovine, 4 hr, read-out: Relative Percent Remaining at 4 hr) | remaining at 8 h, 10 μM ([3]; bovine, 8 hr, read-out: Relative Percent Remaining at 8 hr) | remaining at 24 h, 10 μM ([3]; bovine, 24 hr, read-out: Relative Percent Remaining at 24 hr) | remaining at 72 h, 10 μM ([3]; bovine, 72 hr, read-out: Relative Percent Remaining at 72 hr) | EC50 (MCF-7 cells) | Average src kinase activity (Human Src) | EC50 (HT-29 cells)
Pv-GRPRTSSFAEG-PEG(13)-10Ca-PXL (Piv-GRPRTSSFAEG-{PEG(13)-10Ca‑PXL}; also: TFA salt) | C (C>80) | > 100 nM | > 100 nM | > 100 nM | > 100 nM | C (C>40) |  |  |  |  |  |  |  | 
Pv-RSRTSSF-PEG(11)-3Am-VBL (Piv-RSRTSSF-{PEG(11)-3Am‑VBL}; also: 2 TFA salt) | C (C>80) | > 100 nM | > 100 nM | > 100 nM | > 100 nM | C (C>40) |  |  |  |  |  |  |  | 
Ac-GRPRTSSFAEG-3Am-VBL (Ac-GRPRTSSFAEG-{3Am-VBL}; reading uncertain; also: TFA salt, printed as Ac-GRPRTSSFAEG-3Am-VBL) | C (C>80) | 20 to 100 nM | 20 to 100 nM | < 20 nM | 20 to 100 nM | C (C>40) |  |  |  |  |  |  |  | 
Pv-RSRKESY-PEG(13)-10Ca-PXL (Piv-RSRKESY-{PEG(13)-10Ca‑PXL}; also: 2 TFA salt) | C (C>80) |  |  |  |  | C (C>40) |  |  |  |  |  |  |  | 
Ph(C═O)-RPRTSSF-PEG(11)-3Am-VBL (N-benzoyl; PEG(11) linker; vinblastine conjugate) | C (C>80) | 20 to 100 nM | 20 to 100 nM | 20 to 100 nM | 20 to 100 nM | C (C>40) |  |  |  |  |  |  |  | 
CC(=O)O[C@H]1C(=O)[C@@]2(C)[C@H]([C@H](OC(=O)c3ccccc3)[C@]3(O)C[C@H](OC(=O)[C@H](O)[C@@H](NC(=O)c4ccccc4)c4ccccc4)C(C)=C1C3(C)C)[C@]1(OC(C)=O)CO[C@@H]1C[C@@H]2O [Paclitaxel, reference compound] |  |  |  |  |  |  | 100% | 73% | 59% | 28% | < 3% |  |  | 
Pv-RSRTSSFAEG-PEG(13)-10Ca-PXL (Piv-RSRTSSFAEG-{PEG(13)-10Ca‑PXL}; also: 2 TFA salt) | C (C>80) |  |  |  |  | C (C>40) |  |  |  |  |  |  |  | 
CBz-RPRTSSF-PEG(29)-3Am-VBL (N-CBz; PEG(29) linker; vinblastine conjugate) | B (B=50-80) | > 100 nM | > 100 nM | > 100 nM | > 100 nM | C (C>40) |  |  |  |  |  | > 100 nM |  | 
CBz-GRPRTSSFAEG-3Am-VBL (Cbz-GRPRTSSFAEG-{3Am-VBL}; reading uncertain; also: printed as CBz-GRPRTSSFAEG-3Am-VBL) | C (C>80) | > 100 nM | > 100 nM | > 100 nM | > 100 nM | C (C>40) |  |  |  |  |  |  |  | 
Ac-RSRTSSF-PEG(13)-10Ca-PXL (N-acetyl; PEG(13) linker; paclitaxel conjugate) | C (C>80) |  |  |  |  | C (C>40) |  |  |  |  |  |  |  | 
Ac-RPRTSSF-PEG(11)-3Am-VBL (N-acetyl; PEG(11) linker; vinblastine conjugate) | C (C>80) | 20 to 100 nM | 20 to 100 nM | > 100 nM | 20 to 100 nM | C (C>40) |  |  |  |  |  |  |  | 
CBz-E(Bzl)YIFGSFK-PEG(11)-3Am-VBL (CBz-Glu(Bzl) N-terminal; PEG(11); vinblastine conjugate) | B (B=50-80) | > 100 nM | > 100 nM | > 100 nM | > 100 nM |  |  |  |  |  |  | > 100 nM | C (C>40) | > 100 nM
BOC-RPRTSSF-PEG(11)-3Am-VBL (N-BOC; PEG(11) linker; vinblastine conjugate) | C (C>80) | 20 to 100 nM | 20 to 100 nM | 20 to 100 nM | 20 to 100 nM | C (C>40) |  |  |  |  |  |  |  | 
Ac-EYIyGSFK-PEG(13)-10Ca-PXL (EYIYGSFK; not fully specified) | C (C>80) | > 100 nM | > 100 nM | > 100 nM | > 100 nM |  |  |  |  |  |  | > 100 nM | Zero | > 100 nM
Pv-GRPRTSSFAE(DMAB)G-3Am-VBL (Piv-GRPRTSSFAE(DMAB)G-{3Am‑VBL″}; not fully specified; reading uncertain) | C (C>80) | > 100 nM | > 100 nM | > 100 nM | > 100 nM | C (C>40) |  |  |  |  |  |  |  | 
BOC-E(Bzl)YIFGSFK(BOC)-PEG(11)-3Am-VBL | A (A<50) | 20 to 100 nM | > 100 nM | > 100 nM | > 100 nM |  |  |  |  |  |  | < 20 nM | A (A<20) | 20 to 100 nM
Pv-YIYGSFR-PEG(11)-3Am-VBL (Piv-YIYGSFR-{PEG(11)-3Am‑VBL}) | C (C>80) | > 100 nM | > 100 nM | > 100 nM | > 100 nM |  |  |  |  |  |  | > 100 nM | B (B=20-40) | > 100 nM
Pv-YIFGSFR-PEG(13)-10Ca-PXL (Piv-YIFGSFR-{PEG(13)″-10Ca‑PXL}; also: TFA salt) | A (A<50) | > 100 nM | > 100 nM | > 100 nM | > 100 nM |  |  |  |  |  |  | 20 to 100 nM | Zero | > 100 nM
Ac-EYIYGSFR-PEG(11)-3Am-VBL (N-acetyl, PEG11, vinblastine conjugate) | C (C>80) | > 100 nM | > 100 nM | > 100 nM | > 100 nM |  |  |  |  |  |  | > 100 nM | B (B=20-40) | > 100 nM
Pv-GRPRTSSFAEG-3Am-VBL (Piv-GRPRTSSFAEG-{3Am‑VBL}; also: 2 TFA salt) | C (C>80) | > 100 nM | > 100 nM | > 100 nM | > 100 nM | C (C>40) |  |  |  |  |  |  |  | 
Pv-EYIYGSFR-PEG(13)-10Ca-PXL (Piv-EYIYGSFR-{PEG(13)-10Ca‑PXL}) | B (B=50-80) | > 100 nM | > 100 nM | > 100 nM | > 100 nM |  |  |  |  |  |  | > 100 nM | B (B=20-40) | > 100 nM
